Residues, ends and D or L forms follow the SMILES beside them.
What was measured:
CD-1 mice = experiment: Example 7: streptozotocin (STZ)-induced diabetes, renal damage; type: in vivo, mouse; conditions: STZ-treated mice
Experimental: Streptozotocin (STZ) will be used to induce diabetes in mice. […] groups of CD-1 mice will be studied: Group I—no STZ treatment; Group II—STZ (50 mg/kg, i.p.) will be given once daily for 5 days; Group III—STZ (50 mg/kg, i.p.) will be given once daily for 5 days, +peptide conjugates (3 mg/kg, i.p.) will be given once daily for 16 days; Group IV—STZ (50 mg/kg, i.p.) will be given once daily for 5 days, +aromatic-cationic peptides (an equivalent molar dose of aromatic-cationic peptide based on the concentration of the aromatic-cationic peptide administered in the peptide conjugate treatment group) will be given once daily for 16 days; Group V—STZ (50 mg/kg, i.p.) will be given once daily for 5 days, +SPN10 (an equivalent molar dose of SPN10 based on the concentration of SPN10 administered in the peptide conjugate treatment group) will be given once daily for 16 days; Group VI—STZ (50 mg/kg, i.p.) will be given once daily for 5 days, +SPN10(s) in combination with aromatic-cationic peptides (e.g., an equivalent molar dose of SPN10 based on the concentration of SPN10 administered in the peptide conjugate treatment group and an equivalent molar dose of aromatic-cationic peptide based on the concentration of aromatic-cationic peptide administered in the peptide conjugate treatment group) will be given once daily for 16 days. It is anticipated that STZ treatment will result in a progressive increase in blood glucose. Animals will be sacrificed after 3 weeks and kidney tissues preserved for histopathology. Kidney sections will be examined by Periodic Schiff (PAS) staining for renal tubular brush border.
It is anticipated that STZ treatment will induce significant apoptosis in tubular epithelial cells. Kidney sections will be examined for apoptosis using a TUNEL assay as described herein. It is anticipated that kidney sections from mice treated with STZ will show a large number of apoptotic nuclei in the proximal tubules, compared to non-STZ treated controls.

[1] = system: isolated mouse liver mitochondria; experiment: Example 10: uptake into isolated mitochondria; type: in vitro ADME
Experimental: To isolate mitochondria from mouse liver, mice will be sacrificed by decapitation. The liver will be removed and rapidly placed into chilled liver homogenization medium. The liver will be finely minced using scissors and then homogenized by hand using a glass homogenizer.
The homogenate will be centrifuged for 10 minutes at 1000×g at 4° C. The supernatant will be aspirated and transferred to polycarbonate tubes and centrifuged again for 10 minutes at 3000×g, 4° C. The resulting supernatant will be removed, and the fatty lipids on the side-wall of the tube will be removed.
The pellet will be resuspended in liver homogenate medium and the homogenization repeated twice. The final purified mitochondrial pellet will be resuspended in medium. Protein concentration in the mitochondrial preparation will be determined by the Bradford procedure.
Approximately 1.5 mg mitochondria in 400 μL buffer will be incubated with [^3H] peptide conjugates; [^3H] aromatic-cationic peptides (an equivalent molar dose of aromatic-cationic peptide based on the concentration of the aromatic-cationic peptide administered in the peptide conjugate treatment group); [^3H] […] The mitochondria will then be centrifuged and the amount of radioactivity will be determined in the mitochondrial fraction and buffer fraction. […]

## N=C(N)NCCC[C@H](NC(=O)[C@@H](N)Cc1c[nH]c2ccccc12)C(=O)N[C@@H](Cc1c[nH]c2ccccc12)C(=O)N[C@@H](CCCCN)C(N)=O [SPN10, H-L-Trp-L-Arg-L-Trp-L-Lys-NH2] (H-WRWK-NH2)
CD-1 mice
  apoptotic cells in the proximal tubule (TUNEL): dramatically reduce apoptotic cells
  tubular epithelial nuclei: appear normal
CD-1 mice; daily treatment
  loss of brush border in proximal tubules (PAS): prevent the loss of brush border
[1]; 5-30 minutes at 37° C.
  concentration in mitochondria compared with buffer: higher than in the buffer
[1]; FCCP
  amount associated with the mitochondrial pellet after FCCP: decrease the amount

Source: patent US20240108740A1, “THERAPEUTIC COMPOSITIONS INCLUDING SPN10 AND USES THEREOF” (Stealth BioTherapeutics Inc., priority 2022, published 2024)
